Source: ChEMBL document CHEMBL5346952, “Dimer Peptide Ligands of Vascular Endothelial Growth Factor: Optimizing Linker Length for High Affinity and Antiangiogenic Activity” (J Med Chem, 2023)
pKd: −log10 of the molar value. Starred links: 1 amine or outer side, 2 acyl side, 3 side chain; linkers in the order of their positions; H or OH if unused. Positions of bridges follow the written chain, without caps; N, C: chain ends. Residues, ends and D or L forms follow the SMILES beside them. Chains are numbered I, II in the order given. *: point of attachment. X2 = O=C(O)CCOCCOCCOCCOCCOCCOCCOCCOCCOCCOCCOCCOCCOCCOCCOCCOCCOCCOCCOCCOCCOCCOCCOCCOCCOCCC(=O)*; CO(CH2CH2O)5CH2CH2CO = O=C(CCOCCOCCOCCOCCOCCC(=O)[*:2])[*:1]

Columns and labels:
[1] = molecular target: T1, Vascular endothelial growth factor A, long form (Homo sapiens, UniProt P15692); assay: Binding affinity to human VEGF (13 to 107 residues) expressed in Escherichia coli Rosetta (DE3) cells assessed as dissociation constant at 20 degreeC by isothermal titration calorimetry analysis
T1 sequence (P15692 whole entry): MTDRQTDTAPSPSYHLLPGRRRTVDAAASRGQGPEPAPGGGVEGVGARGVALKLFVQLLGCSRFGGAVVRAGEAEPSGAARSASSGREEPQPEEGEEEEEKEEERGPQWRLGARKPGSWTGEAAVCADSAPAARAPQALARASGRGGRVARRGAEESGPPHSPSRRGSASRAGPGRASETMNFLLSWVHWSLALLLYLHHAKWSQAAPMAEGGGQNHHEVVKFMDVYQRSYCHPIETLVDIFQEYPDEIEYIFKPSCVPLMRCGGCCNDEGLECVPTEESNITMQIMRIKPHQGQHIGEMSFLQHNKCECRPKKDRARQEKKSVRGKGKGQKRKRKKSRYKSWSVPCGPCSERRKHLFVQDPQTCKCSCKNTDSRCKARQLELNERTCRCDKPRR

[2] = molecular target: T2, Vascular endothelial growth factor A, long form (Homo sapiens) (UniProt P15692); assay: Binding affinity to human VEGF (13 to 107 residues) expressed in Escherichia coli Rosetta (DE3) cells assessed as change in heat capacity at 20 degreeC by isothermal titration calorimetry analysis
T2 sequence (whole entry): T1 sequence (P15692 whole entry)

HUVEC [3] = assay: Antiangiogenic activity in human HUVEC cells assessed as inhibition of VEGFA-induced capillary tube formation incubated for 6 hrs by matrigel based microscopic analysis; format: functional, cell-based
[4] = molecular target: T2, Vascular endothelial growth factor A, long form (Homo sapiens); assay: Binding affinity to human VEGF (13 to 107 residues) expressed in Escherichia coli Rosetta (DE3) cells assessed as change in entropy at 37 degreeC by isothermal titration calorimetry analysis
[5] = molecular target: T2, Vascular endothelial growth factor A, long form (Homo sapiens); assay: Binding affinity to human VEGF (13 to 107 residues) expressed in Escherichia coli Rosetta (DE3) cells assessed as change in entropy at 20 degreeC by isothermal titration calorimetry analysis
[6] = molecular target: T2, Vascular endothelial growth factor A, long form (Homo sapiens); assay: Binding affinity to human VEGF (13 to 107 residues) expressed in Escherichia coli Rosetta (DE3) cells assessed as Gibbs free energy change at 37 degreeC by isothermal titration calorimetry analysis
[7] = molecular target: T2, Vascular endothelial growth factor A, long form (Homo sapiens); assay: Binding affinity to human VEGF (13 to 107 residues) expressed in Escherichia coli Rosetta (DE3) cells assessed as Gibbs free energy change at 20 degreeC by isothermal titration calorimetry analysis
[8] = molecular target: T2, Vascular endothelial growth factor A, long form (Homo sapiens); assay: Binding affinity to human VEGF (13 to 107 residues) expressed in Escherichia coli Rosetta (DE3) cells assessed as change in enthalpy at 37 degreeC by isothermal titration calorimetry analysis
[9] = molecular target: T2, Vascular endothelial growth factor A, long form (Homo sapiens); assay: Binding affinity to human VEGF (13 to 107 residues) expressed in Escherichia coli Rosetta (DE3) cells assessed as change in enthalpy at 20 degreeC by isothermal titration calorimetry analysis
[10] = molecular target: T1, Vascular endothelial growth factor A, long form; assay: Binding affinity to human VEGF (13 to 107 residues) expressed in Escherichia coli Rosetta (DE3) cells assessed as dissociation constant at 37 degreeC by isothermal titration calorimetry analysis
HUVEC [11] = assay: Antiangiogenic activity in human HUVEC cells assessed as inhibition of VEGFA-induced cell migration incubated for 12 hrs by wound healing assay; format: functional, cell-based

pKd [1] | DeltaCp [2] [kcal/mol/K] | -TdeltaS [4] [kcal/mol] | -TdeltaS [5] [kcal/mol] | deltaG [6] [kcal/mol] | deltaG [7] [kcal/mol] | deltaH [8] [kcal/mol] | deltaH [9] [kcal/mol] | pKd [10] | Compound | Activity (HUVEC [3]) | Activity (HUVEC [11])
6.80 | -0.31 | 15.5 | 9.51 | -8.5 | -9.12 | -24 | -18.6 | 5.99 | CC[C@H](C)[C@@H]1NC(=O)[C@H](CC(=O)O)NC(=O)[C@@H](NC(C)=O)CSSC[C@@H]2NC(=O)[C@H](CCCCNC(=O)C[C@@H](C(=O)N[C@@H](CC(C)C)C(N)=O)NC(=O)[C@H](CCC(=O)O)NC(=O)[C@H](Cc3ccccc3)NC2=O)NC(=O)[C@H](Cc2c[nH]c3ccccc23)NC(=O)[C@H](CCC(=O)O)NC(=O)[C@H](Cc2c[nH]c3ccccc23)NC(=O)[C@H](CCCCNC(=O)CCOCCOCCOCCOCCOCCOCCOCCOCCOCCOCCOCCOCCOCCOCCOCCOCCOCCOCCOCCOCCOCCOCCOCCOCCOCCC(=O)O)NC(=O)[C@H](C(C)C)NC(=O)[C@H](Cc2cnc[nH]2)NC1=O (Ac-CDIHVK(X2)WEWKCFEDL-NH2; disulfide 1-11; lactam 10-14) | Dose-Dependent Effect | Dose-Dependent Effect
7.74 | -0.51 | 36.4 | 27.3 | -10 | -10.4 | -46.4 | -37.7 | 7.05 | CC[C@H](C)[C@@H]1NC(=O)[C@H](CC(=O)O)NC(=O)[C@@H](NC(C)=O)CSSC[C@@H]2NC(=O)[C@H](CCCCNC(=O)C[C@@H](C(=O)N[C@@H](CC(C)C)C(N)=O)NC(=O)[C@H](CCC(=O)O)NC(=O)[C@H](Cc3ccccc3)NC2=O)NC(=O)[C@H](Cc2c[nH]c3ccccc23)NC(=O)[C@H](CCC(=O)O)NC(=O)[C@H](Cc2c[nH]c3ccccc23)NC(=O)[C@H](CCCCNC(=O)CCOCCOCCOCCOCCOCCC(=O)NCCCC[C@@H]2NC(=O)[C@H](C(C)C)NC(=O)[C@H](Cc3cnc[nH]3)NC(=O)[C@H]([C@@H](C)CC)NC(=O)[C@H](CC(=O)O)NC(=O)[C@@H](NC(C)=O)CSSC[C@@H]3NC(=O)[C@H](CCCCNC(=O)C[C@@H](C(=O)N[C@@H](CC(C)C)C(N)=O)NC(=O)[C@H](CCC(=O)O)NC(=O)[C@H](Cc4ccccc4)NC3=O)NC(=O)[C@H](Cc3c[nH]c4ccccc34)NC(=O)[C@H](CCC(=O)O)NC(=O)[C@H](Cc3c[nH]c4ccccc34)NC2=O)NC(=O)[C@H](C(C)C)NC(=O)[C@H](Cc2cnc[nH]2)NC1=O (I: Ac-CDIHVKWEWKCFEDL-NH2 / II: Ac-CDIHVKWEWKCFEDL-NH2; disulfide I:1-I:11, II:1-II:11; linker I:6-II:6 via CO(CH2CH2O)5CH2CH2CO; lactam I:10-I:14, II:10-II:14) | Dose-Dependent Effect | Dose-Dependent Effect
